In patent US20010056089A1, “Novel crystal of cephalosporin compound” (FUJISAWA PHARMACEUTICAL CO., LTD., priority 1995, published 2001):

Tests used:
[1] = Stability test (2): 9-day stability in an airtight container at 70° C.; type: physicochemical; conditions: potency by liquid chromatography
Method: Four lots of the isopropyl alcohol and water-containing crystal of compound (I) as obtained in Example 8 (2) were used.
The 9-day stability of each test sample in an airtight container at 70° C. was determined. The potency of each test sample was determined by liquid chromatography and the percentage residue was calculated.

[2] = Stability test (1): one-month stability in an airtight container at 40° C.; type: physicochemical; conditions: potency by liquid chromatography
Method: The water-containing crystals and isopropyl alcohol and water-containing crystals of Compound (I) or a salt thereof obtained in Examples 5, 7 and 8(1) were tested.
The one-month stability of each test sample in an airtight container at 40° C. was evaluated.
The potency of each test sample was determined by liquid chromatography and the percentage residue of Compound (I) or a salt thereof was calculated.

[3] = Urinary excretion after oral administration; type: in vivo; conditions: male, SD, rat, urine; rats fasted overnight, 20 mg/kg oral, suspended in 0.5% methylcellulose; disk plate diffusion, Bacillus subtilis ATCC 6633; read-out: Recovery in 24-hrs urine (%)
Method: (C) Urinary Excretion Test Method Male SD rats (6-7 weeks old) from JCL were used. The test compound was suspended in 0.5% methylcellulose solution. The rats were fasted overnight before administration of 20 mg/kg. The urine was collected in the time slots of 0-6 and 6-24 hours after oral administration and the urinary recovery was determined by the disk plate diffusion method using Bacillus subtilis ATCC 6633 as the test organism and sodium citrate agar (0.8% sodium citrate, 0.5% polypeptone, 0.3% beef extract, and 1.0% agar) as the test medium.

[4] = Stability test of the crystal of Example 2 (conditions not stated); type: physicochemical

| Structure (SMILES) | Residue (%) [1] | Residue (%) [2] | also measured |
| --- | --- | --- | --- |
| Nc1nc(/C(=N/O)C(=O)NC2C(=O)N3C(C(=O)O)=C(SCc4cn[nH]c4)CSC23)cs1 (stereo not drawn) [Example 35414OP] | 98.7% |  |  |
| Nc1nc(/C(=N/O)C(=O)NC2C(=O)N3C(C(=O)O)=C(SCc4cn[nH]c4)CSC23)cs1 (stereo not drawn) [Example 35534OP] | 99.2% |  |  |
| Nc1nc(/C(=N/O)C(=O)NC2C(=O)N3C(C(=O)O)=C(SCc4cn[nH]c4)CSC23)cs1 (stereo not drawn) [Example 35434OP] | 98.0% |  |  |
| Nc1nc(/C(=N/O)C(=O)N[C@@H]2C(=O)N3C(C(=O)O)=C(SCc4cn[nH]c4)CS[C@H]23)cs1 [Example 7, 7β-[2-(2-aminothiazol-4-yl)-2-(Z)-(hydroxyimino)acetamido]-3-[(pyrazol-4-yl)methylthio]-3-cephem-4-carboxylic acid] |  | 99.2% |  |
| Nc1nc(/C(=N/O)C(=O)N[C@@H]2C(=O)N3C(C(=O)O)=C(SCc4cn[nH]c4)CS[C@H]23)cs1 [Compound (I), 7β-[2-(2-aminothiazol-4-yl)-2-(Z)-(hydroxyimino)acetamido]-3-[(pyrazol-4-yl)methylthio]-3-cephem-4-carboxylic acid] |  |  | dose excreted [3]: 50% |
| Nc1nc(/C(=N/O)C(=O)N[C@@H]2C(=O)N3C(C(=O)O)=C(SCc4cn[nH]c4)CS[C@H]23)cs1 [Example 5, 7β-[2-(2-amino-thiazol-4-yl)-2-(Z)-(hydroxyimino)acetamido]-3-[(pyrazol-4-yl)methylthio]-3-cephem-4-carboxylic acid] |  | 98.2% |  |
| Nc1nc(/C(=N/O)C(=O)N[C@@H]2C(=O)N3C(C(=O)O)=C(SCc4cn[nH]c4)CS[C@H]23)cs1 [Example 2, 7β-[2-(2-aminothiazol-4-yl)-2-(Z)-(hydroxyimino)acetamido]-3-[(pyrazol-4-yl)methylthio]-3-cephem-4-carboxylic acid] |  |  | stability in the stability test [4]: stable |
| Nc1nc(/C(=N/O)C(=O)NC2C(=O)N3C(C(=O)O)=C(SCc4cn[nH]c4)CSC23)cs1 (stereo not drawn) [Example 37914XP] | 98.0% |  |  |
| Nc1nc(/C(=N/O)C(=O)N[C@@H]2C(=O)N3C(C(=O)O)=C(SCc4cn[nH]c4)CS[C@H]23)cs1 [Example 8(1), 7β-[2-(2-aminothiazol-4-yl)-2-(Z)-(hydroxyimino)acetamido]-3-[(pyrazol-4-yl)methylthio]-3-cephem-4-carboxylic acid] |  | 98.5% |  |
